Test results published in ChEMBL document CHEMBL1201862, “PubChem BioAssay data set” (2004).
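Results reflect a 48-hour exposure of cells in 96-well plates to compound at five concentrations. The concentration for 50% growth inhibition is given as GI50.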 Activity calls are given as the source filed them. Cut-off read from the data, not from the text of the source: active = GI50 up to about 1.1 µM and inactive = higher.

Assays:
Assay in all cases: NCI anticancer screen, dose series, 48 h
[1] = tested on: TK-10
[2] = tested on: CCRF-CEM
[3] = tested on: SR
[4] = tested on: KM12
[5] = tested on: HCT-116
[6] = tested on: SF-295
[7] = tested on: DU-145
[8] = tested on: CAKI-1
[9] = tested on: MOLT-4
[10] = tested on: HOP-62
[11] = tested on: OVCAR-3
[12] = tested on: SW-620
[13] = tested on: UACC-257
[14] = tested on: SK-MEL-28
[15] = tested on: NCI-H460
[16] = tested on: HCT-15
[17] = tested on: A549
[18] = tested on: HL-60
[19] = tested on: MDA-MB-435
[20] = tested on: OVCAR-8

| SMILES | GI50 [1] | GI50 [2] | GI50 [3] | GI50 [4] | GI50 [5] | GI50 [6] | GI50 [7] | GI50 [8] | GI50 [9] | GI50 [10] | GI50 [11] | GI50 [12] | GI50 [13] | GI50 [14] | GI50 [15] | GI50 [16] [µM] | GI50 [17] | GI50 [18] | GI50 [19] | GI50 [20] |
| --- | --- | --- | --- | --- | --- | --- | --- | --- | --- | --- | --- | --- | --- | --- | --- | --- | --- | --- | --- | --- |
| O=C(O)CSc1ncccc1[N+](=O)[O-] | > 100 µM (inactive) | > 100 µM (inactive) | > 100 µM (inactive) | > 100 µM (inactive) | > 100 µM (inactive) | > 100 µM (inactive) | > 100 µM (inactive) | > 100 µM (inactive) | > 100 µM (inactive) | > 100 µM (inactive) | > 100 µM (inactive) | > 100 µM (inactive) | > 100 µM (inactive) | > 100 µM (inactive) | > 100 µM (inactive) | > 100 | > 100 µM (inactive) | > 100 µM (inactive) | > 100 µM (inactive) | > 100 µM (inactive) |
| CC(=O)N1C(Nc2cnc3ccccc3c2)CCN1c1ccccc1 (stereo unspecified) | > 10 µM (inactive) | > 10 µM (inactive) | > 10 µM (inactive) |  | > 10 µM (inactive) | > 10 µM (inactive) | > 10 µM (inactive) | > 10 µM (inactive) | > 10 µM (inactive) | > 10 µM (inactive) | > 10 µM (inactive) | 4.78 µM (inactive) | > 10 µM (inactive) | > 10 µM (inactive) | > 10 µM (inactive) | > 10 | > 10 µM (inactive) | 6.37 µM (inactive) | > 10 µM (inactive) | > 10 µM (inactive) |
| C=C1[C@H](OC(=O)C(C)C)[C@@H](OC(C)=O)[C@@H](OC(C)=O)C(C)(C)[C@@H]2O[C@H]2[C@@H](C)C(=O)[C@@]2(OC(C)=O)C[C@@](C)(OC(C)=O)[C@H](OC(C)=O)[C@@H]2[C@H]1OC(C)=O | > 100 µM (inactive) | > 100 µM (inactive) | > 100 µM (inactive) | > 100 µM (inactive) | > 100 µM (inactive) | > 100 µM (inactive) | > 100 µM (inactive) | > 100 µM (inactive) | > 100 µM (inactive) | > 100 µM (inactive) | > 100 µM (inactive) | > 100 µM (inactive) | > 100 µM (inactive) |  | > 100 µM (inactive) | > 100 | > 100 µM (inactive) | > 100 µM (inactive) | > 100 µM (inactive) | > 100 µM (inactive) |
| CCN1CCC(O)(c2ccc(Oc3ccccc3)cc2)C(C(=O)c2ccc(Oc3ccccc3)cc2)C1 (stereo unspecified) | 13.7 µM (inactive) | 5.81 µM (inactive) | 5.74 µM (inactive) | 4.85 µM (inactive) | 9.27 µM (inactive) | 14.2 µM (inactive) | 14.3 µM (inactive) | 16.4 µM (inactive) | 13 µM (inactive) | 11.9 µM (inactive) | 14.8 µM (inactive) | 12.1 µM (inactive) | 12.7 µM (inactive) | 13.6 µM (inactive) | 3.85 µM (inactive) | 12.2 | 13.5 µM (inactive) | 3.75 µM (inactive) | 12.9 µM (inactive) | 17.1 µM (inactive) |
| COc1cccc2c1C(=O)c1c(O)c3c(c(O)c1C2=O)C[C@@](O)(/C(C)=N/NC(=O)c1ccc(Cl)c(Cl)c1)C[C@@H]3OC1CC(N)C(O)C(C)O1 (stereo partly specified) | 0.225 µM (active) | 0.0299 µM (active) | < 0.01 µM (active) | 0.205 µM (active) | 0.0391 µM (active) | 0.078 µM (active) | 0.251 µM (active) | 0.0646 µM (active) | < 0.01 µM (active) | 0.147 µM (active) | 0.226 µM (active) | 0.0923 µM (active) | 0.188 µM (active) | 0.0676 µM (active) | 0.067 µM (active) | 0.219 | 0.186 µM (active) | 0.0348 µM (active) | 0.27 µM (active) | 0.292 µM (active) |
| CC12OOC(c3ccccc31)c1c2ccc2ccccc12 (stereo unspecified) | 9.68 µM (inactive) | 0.904 µM (active) | 0.807 µM (active) | 2.62 µM (inactive) | 1.73 µM (inactive) | 7.11 µM (inactive) | 18.5 µM (inactive) | 0.641 µM (active) | 1.6 µM (inactive) | 16.2 µM (inactive) | 2.26 µM (inactive) | 1.95 µM (inactive) | 13.4 µM (inactive) | 13.8 µM (inactive) | 2.26 µM (inactive) | 2.17 | 3.73 µM (inactive) | 0.334 µM (active) | 6.3 µM (inactive) | 6.71 µM (inactive) |
| O=C(N[C@H]1CCC[C@H]1C(=O)Nc1ccc(C(F)(F)F)cc1)OCc1ccccc1 | > 100 µM (inactive) | > 100 µM (inactive) | > 100 µM (inactive) | > 100 µM (inactive) | > 100 µM (inactive) | > 100 µM (inactive) | > 100 µM (inactive) | > 100 µM (inactive) | > 100 µM (inactive) | > 100 µM (inactive) | > 100 µM (inactive) | > 100 µM (inactive) | > 100 µM (inactive) | > 100 µM (inactive) | > 100 µM (inactive) | > 100 | > 100 µM (inactive) | > 100 µM (inactive) | > 100 µM (inactive) | > 100 µM (inactive) |
| Oc1c2cc(Br)cc1CCc1cc(Br)cc(c1O)CC2 | 31.6 µM (inactive) | 18.2 µM (inactive) | < 0.01 µM (active) | 17.3 µM (inactive) | 15.1 µM (inactive) | 18.3 µM (inactive) | 16 µM (inactive) | 36 µM (inactive) | 18 µM (inactive) | 28.6 µM (inactive) | 20.2 µM (inactive) | 24.3 µM (inactive) | 20.2 µM (inactive) | 27 µM (inactive) | 18.5 µM (inactive) | 30.5 | 26.9 µM (inactive) | 15.7 µM (inactive) | 29.2 µM (inactive) | 28.8 µM (inactive) |
| O=C(c1ccccc1)N1C(=S)N(c2ccccn2)C(=N/c2ccccc2)/C1=N\c1ccccc1 | 25.1 µM (inactive) | 2.57 µM (inactive) | 3.86 µM (inactive) | 5.43 µM (inactive) | 12.8 µM (inactive) | 25.5 µM (inactive) | > 61.9 µM (inactive) | 10.5 µM (inactive) | 4.01 µM (inactive) | 27.4 µM (inactive) | 18.2 µM (inactive) | 5.19 µM (inactive) | 23 µM (inactive) | 22.3 µM (inactive) | 29.5 µM (inactive) | 3.79 | 27.5 µM (inactive) | 3.66 µM (inactive) | 19.6 µM (inactive) | 8.28 µM (inactive) |
| Cc1nc2ccc(Br)cc2c(=O)n1-c1nnc(C(C)(C)C)s1 | > 10 µM (inactive) | > 10 µM (inactive) | > 10 µM (inactive) | > 10 µM (inactive) | > 10 µM (inactive) | > 10 µM (inactive) | > 10 µM (inactive) | > 10 µM (inactive) | > 10 µM (inactive) | > 10 µM (inactive) | > 10 µM (inactive) | > 10 µM (inactive) | > 10 µM (inactive) | > 10 µM (inactive) | > 10 µM (inactive) | > 10 | > 10 µM (inactive) | > 10 µM (inactive) | > 10 µM (inactive) | > 10 µM (inactive) |
| Cc1ccc(S(=O)(=O)NN=C2C(C)CC(C(C)(C)C)CC2C)cc1 (stereo unspecified) | 26.4 µM (inactive) | 20 µM (inactive) | 26.8 µM (inactive) | 17.6 µM (inactive) | 17.5 µM (inactive) | 18.1 µM (inactive) | 19.7 µM (inactive) | 16.9 µM (inactive) | 20.6 µM (inactive) | 16.4 µM (inactive) | 16.6 µM (inactive) | 20 µM (inactive) | 19.1 µM (inactive) | 20 µM (inactive) | 18.8 µM (inactive) | 18.2 | 17.9 µM (inactive) | 25.9 µM (inactive) | 20 µM (inactive) | 24.1 µM (inactive) |
| CC(C)(C)OC(=O)[N+](=N)C(=O)C1CCC(=O)N1C(=O)OCc1ccccc1 (stereo unspecified) | > 100 µM (inactive) | > 100 µM (inactive) | > 100 µM (inactive) | > 100 µM (inactive) | > 100 µM (inactive) | > 100 µM (inactive) | > 100 µM (inactive) | > 100 µM (inactive) | > 100 µM (inactive) | > 100 µM (inactive) | > 100 µM (inactive) | > 100 µM (inactive) |  | > 100 µM (inactive) | > 100 µM (inactive) |  | > 100 µM (inactive) | > 100 µM (inactive) | 86.7 µM (inactive) | > 100 µM (inactive) |
| COC(=O)C1CC2(C)C=CC1N(C(=O)OCc1ccccc1)C2 (stereo unspecified) | > 100 µM (inactive) | 69 µM (inactive) | 37.6 µM (inactive) | 52.1 µM (inactive) | 40.8 µM (inactive) | 42.4 µM (inactive) | > 100 µM (inactive) | > 100 µM (inactive) | 31.6 µM (inactive) | > 100 µM (inactive) | 55.8 µM (inactive) | > 100 µM (inactive) | 65.3 µM (inactive) | > 100 µM (inactive) | > 100 µM (inactive) | 94 | 88.5 µM (inactive) | 24.2 µM (inactive) | 79.6 µM (inactive) | > 100 µM (inactive) |
| O=C(O)c1cc2ccccc2c(/N=N/c2ccc(S(=O)(=O)Nc3nccs3)cc2)c1O | > 100 µM (inactive) | > 100 µM (inactive) | > 100 µM (inactive) | > 100 µM (inactive) | > 100 µM (inactive) | > 100 µM (inactive) | > 100 µM (inactive) | > 100 µM (inactive) | > 100 µM (inactive) | > 100 µM (inactive) | > 100 µM (inactive) | > 100 µM (inactive) | > 100 µM (inactive) | > 100 µM (inactive) | > 100 µM (inactive) | > 100 | > 100 µM (inactive) | > 100 µM (inactive) | > 100 µM (inactive) | > 100 µM (inactive) |
